# In patent US20110269790A1, “NOVEL THIENOPYRIDINES AS PHARMACOLOGICALLY ACTIVE AGENTS” (priority 2009, published 2011):
# Tested on: not given
# Assay: not given
# Details: not given
row,Compound,melting point [°C]
1,"CC1CCc2c(nc3sc4c(c3c2N)CCC4)C1 (stereo not drawn) [BN-15, 7-Methyl-2,3,6,7,8,9-hexahydro-1H-cyclopenta[4,5]thieno[2,3-b]quinolin-10-amine]",263.2

# Tested on: crude intestinal α-glucosidase
# Assay: In-vitro mammalian (rat intestinal) α-glucosidase inhibition assay
# Assay type: biochemical
# Details: not given
# Source text: (§1) Chemicals: α-Glucosidase [(EC 3.2.1.20) Type I: from bakers yeast], rat intestinal acetone powder (as a source of crude intestinal α-glucosidase), α-amylase [EC 3.2.1.1) Type VI B: from porcine pancreas], p-nitrophenyl α-D-glucopyranoside, 3,5-dinitro salicylic acid, soluble potato starch and 1-deoxyrojirimycine, were purchased from Sigma Chemical Co., St Louis, Mo., USA. Other chemicals of analytical grade were procured from indigenous manufacturers.
# (§2) In-vitro a-Glucosidase Inhibition Assay: Yeast and intestinal a-glucosidase inhibitory activities were determined as per reported methods (Babu et al., 2004; Mc Dougall et al., 2005). Rat intestinal acetone powder in normal saline (100% w/v) was sonicated properly and the supernatant was used as a source of crude intestinal a-glucosidase after centrifugation. In brief, 20 μl, of test samples (100 mg/ml DMSO solution) were reconstituted in 100 μl of 100 mM-Phosphate buffer (pH 6.8) in a 96-well microplate and incubated with 50 μl yeast a-glucosidase (0.76 μ/ml in same buffer) or crude intestinal a-glucosidase for 5 min before 50-μl substrate (5 mM, […] prepared in same buffer) was added. Release of p-nitrophenyol was measured at 405 nm spectrophotometrically (Spectra Mas Plus 384, Molecular Device corporation, Sunnyvale, Calif., USA) 5 min after incubation with substrate, individual blank for test samples were prepared to correct background absorbance where the substrate was replaced with 50 μl of buffer. The control sample contained 20 μl DMSO in place of test samples. The percentage of enzyme inhibition was calculated as (A−B/A)×100 where A is represents the absorbance of the control without test samples, and B represents the absorbance in the presence of test samples. […] The IC50 values were calculated by applying logarithmic regression analysis from the mean inhibitory values.
row,Compound,Mammalian α-glucosidase inhibitory activity (in words)
1,"CC1CCc2c(nc3sc4c(c3c2N)CCCC4)C1 (stereo not drawn) [BN-7, 8-Methyl-1,2,3,4,7,8,9,10-octahydrobenzo[4,5]thieno[2,3-b]quinolin-11-amine]",moderate inhibitory activity
2,"CC1CCc2c(nc3sc4c(c3c2N)CCC4)C1 (stereo not drawn) [BN-15, 7-Methyl-2,3,6,7,8,9-hexahydro-1H-cyclopenta[4,5]thieno[2,3-b]quinolin-10-amine]",significant inhibitory activity

# Same assay, conditions: 0.039063 mg/ml
row,Compound,Mammalian α-glucosidase inhibition (Mean ± S.E) [%]
1,"CC1CCc2c(nc3sc4c(c3c2N)CCC4)C1 (stereo not drawn) [BN-15, 7-Methyl-2,3,6,7,8,9-hexahydro-1H-cyclopenta[4,5]thieno[2,3-b]quinolin-10-amine]",11.85 ± 3.45

# Same assay, conditions: 0.078125 mg/ml
row,Compound,Mammalian α-glucosidase inhibition (Mean ± S.E) [%]
1,"CC1CCc2c(nc3sc4c(c3c2N)CCC4)C1 (stereo not drawn) [BN-15, 7-Methyl-2,3,6,7,8,9-hexahydro-1H-cyclopenta[4,5]thieno[2,3-b]quinolin-10-amine]",31.57 ± 2.74

# Same assay, conditions: 0.15625 mg/ml
row,Compound,Mammalian α-glucosidase inhibition (Mean ± S.E) [%]
1,"CC1CCc2c(nc3sc4c(c3c2N)CCC4)C1 (stereo not drawn) [BN-15, 7-Methyl-2,3,6,7,8,9-hexahydro-1H-cyclopenta[4,5]thieno[2,3-b]quinolin-10-amine]",40.72 ± 2.26

# Same assay, conditions: 0.3125 mg/ml
row,Compound,Mammalian α-glucosidase inhibition (Mean ± S.E) [%]
1,"CC1CCc2c(nc3sc4c(c3c2N)CCC4)C1 (stereo not drawn) [BN-15, 7-Methyl-2,3,6,7,8,9-hexahydro-1H-cyclopenta[4,5]thieno[2,3-b]quinolin-10-amine]",52.37 ± 1.64

# Same assay, conditions: 0.625 mg/ml
row,Compound,Mammalian α-glucosidase inhibition (Mean ± S.E) [%]
1,"CC1CCc2c(nc3sc4c(c3c2N)CCC4)C1 (stereo not drawn) [BN-15, 7-Methyl-2,3,6,7,8,9-hexahydro-1H-cyclopenta[4,5]thieno[2,3-b]quinolin-10-amine]",61.83 ± 0.26

# Same assay, conditions: 1.25 mg/ml
row,Compound,Mammalian α-glucosidase inhibition (Mean ± S.E) [%]
1,"CC1CCc2c(nc3sc4c(c3c2N)CCC4)C1 (stereo not drawn) [BN-15, 7-Methyl-2,3,6,7,8,9-hexahydro-1H-cyclopenta[4,5]thieno[2,3-b]quinolin-10-amine]",78.49 ± 1.88

# Same assay, conditions: 2.5 mg/ml
row,Compound,Mammalian α-glucosidase inhibition (Mean ± S.E) [%]
1,"CC1CCc2c(nc3sc4c(c3c2N)CCC4)C1 (stereo not drawn) [BN-15, 7-Methyl-2,3,6,7,8,9-hexahydro-1H-cyclopenta[4,5]thieno[2,3-b]quinolin-10-amine]",83.34 ± 3.13

# Same assay, conditions: 5 mg/ml
row,Compound,Mammalian α-glucosidase inhibition (Mean ± S.E) [%]
1,"CC1CCc2c(nc3sc4c(c3c2N)CCC4)C1 (stereo not drawn) [BN-15, 7-Methyl-2,3,6,7,8,9-hexahydro-1H-cyclopenta[4,5]thieno[2,3-b]quinolin-10-amine]",88.87 ± 1.35

# Same assay, conditions: highest concentration 5 mg/ml
row,Compound,Mammalian α Glucosidase Inhibition (Mean ± S.E) [%]
1,"Nc1c2c(nc3sc4c(c13)CCCC4)CCCC2 [BN-6, 1,2,3,4,7,8,9,10-Octahydrobenzo[4,5]thieno[2,3-b]quinolin-11-amine]",19.92 ± 1.27
2,"CC1CCc2c(nc3sc4c(c3c2N)CCCC4)C1 (stereo not drawn) [BN-7, 8-Methyl-1,2,3,4,7,8,9,10-octahydrobenzo[4,5]thieno[2,3-b]quinolin-11-amine]",50.19 ± 0.93
3,"Nc1c2c(nc3sc4c(c13)CCCC4)CCCCC2 [BN-8, 2,3,4,7,8,9,10,11-Octahydro-1H-benzo[4,5]thieno[2,3-b]cyclohepta [e]pyridin-12-amine]",10.76 ± 0.92
4,"CC1CCc2c(nc3sc4c(c3c2N)CCC4)C1 (stereo not drawn) [BN-15, 7-Methyl-2,3,6,7,8,9-hexahydro-1H-cyclopenta[4,5]thieno[2,3-b]quinolin-10-amine]",88.87

# Same assay, conditions: mammalian α-glucosidase, dose response study
row,Compound,IC50 [µg/mL]
1,"CC1CCc2c(nc3sc4c(c3c2N)CCC4)C1 (stereo not drawn) [BN-15, 7-Methyl-2,3,6,7,8,9-hexahydro-1H-cyclopenta[4,5]thieno[2,3-b]quinolin-10-amine]",299

# Biological target: T1, yeast α-glucosidase (Saccharomyces cerevisiae, UniProt P53341)
# T1 construct: α-Glucosidase [(EC 3.2.1.20) Type I: from bakers yeast]
# Assay: In-vitro yeast α-glucosidase inhibition assay
# Assay type: biochemical, bakers yeast
# Details: not given
# Source text: as §1, §2
# T1 sequence (P53341 whole entry): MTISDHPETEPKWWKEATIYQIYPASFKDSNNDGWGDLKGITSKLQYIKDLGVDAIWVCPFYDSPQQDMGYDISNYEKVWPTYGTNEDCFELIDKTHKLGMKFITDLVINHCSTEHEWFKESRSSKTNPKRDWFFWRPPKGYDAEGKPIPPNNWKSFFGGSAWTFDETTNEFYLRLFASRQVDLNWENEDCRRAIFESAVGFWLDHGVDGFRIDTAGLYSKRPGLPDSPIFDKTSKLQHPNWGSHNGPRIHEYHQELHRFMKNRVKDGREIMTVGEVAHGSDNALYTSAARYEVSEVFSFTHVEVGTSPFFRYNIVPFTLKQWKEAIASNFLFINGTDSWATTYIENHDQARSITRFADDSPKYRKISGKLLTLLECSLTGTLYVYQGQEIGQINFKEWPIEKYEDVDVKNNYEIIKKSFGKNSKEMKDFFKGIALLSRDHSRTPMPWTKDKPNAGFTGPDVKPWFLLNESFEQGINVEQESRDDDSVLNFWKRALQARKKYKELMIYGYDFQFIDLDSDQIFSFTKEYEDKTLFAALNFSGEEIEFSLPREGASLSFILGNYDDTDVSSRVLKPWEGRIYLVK
row,Compound,Yeast α-glucosidase enzyme inhibitory activity (in words)
1,"Nc1c2c(nc3sc4c(c13)CCCC4)CCCC2 [BN-6, 1,2,3,4,7,8,9,10-Octahydrobenzo[4,5]thieno[2,3-b]quinolin-11-amine]",moderate inhibitory activity
2,"CC1CCc2c(nc3sc4c(c3c2N)CCC4)C1 (stereo not drawn) [BN-15, 7-Methyl-2,3,6,7,8,9-hexahydro-1H-cyclopenta[4,5]thieno[2,3-b]quinolin-10-amine]",moderate inhibitory activity

# Tested on: mice
# Assay: Adenosine mediated bronchoconstriction and lung inflammation in an allergic mouse model
# Assay type: in vivo
# Parameters: Total count: unit not given here
# Details: BAL fluid cells; 100 mg/kg oral
# Description: Thienopyridines were proven as potent cytotoxic and anti-inflammatory agents in the previous experimental results. In cytotoxic MTT assay, activity of these molecules may be due to the involvement of adenosine receptors. Further, to find the bronchodilatory activity of these moieties and to find the involvement of adenosine receptors in their action, non-invasive and invasive adenosine mediated bronchoconstriction and lung inflammation in an allergic mouse model was performed.
# Male mice, 6-8 weeks of age, free of specific pathogens were obtained from National Institute of Nutrition. The animals were maintained on a ragweed-free diet. All experimental protocols used in this study were under a protocol approved by animal ethical committee. Sensitization was performed according to the modified procedure described by Fan et al, 2002. Mice were sensitized on days 1 and 6 with i.p. injections of ragweed allergen (200 μg/200 μl of water for injection). Non-sensitized control animals received only water for injection with the same volumes. Ten days after sensitization, the mice were placed in plexiglas chamber and challenged with 0.5% ragweed or with 0.9% saline as a control for twenty minutes both in the morning and evening for three days. Then mice were divided into different groups consisting of six animals each. The groups including a control without sensitization; a sensitized group and a standard group along with groups of the test molecules were separated. Twenty-four hours after last challenge with ragweed, the mice were given an oral dose of test molecules and theophylline (100 mg/kg body weight) as acacia suspension. Two hours after administration of the oral dose, the mice were challenged with adenosine solution (24 mg/ml). The variation in respiration was recorded after anaesthetizing them with pentobarbitone sodium (0.1 ml 200 mg/ml ip) using kymograph. Then, mice were sacrificed and trachea was cannulated to collect the bronchoalveolar lavage fluid. This was performed by pumping 1 ml phosphate buffered saline into lungs through tracheal cannula and collecting the sample. Analysis of BAL fluid was performed to get the cellular differentials. The BAL fluid was centrifugated at 1500 rpm for six minutes at room temparature. After removing the supernatant, BAL cells were resuspended in 1 ml of phosphate buffered saline. Total cells were then counted manually in a hemocytometer chamber. A differential count of at least 300 cells was made according to the standard morphologic criteria and results were mentioned in table.
Compound,Differential count (%) Eosinophils [%],Differential count (%) Lymphocytes [%],Differential count (%) Monocytes [%],Total count
"Nc1c2c(nc3sc4c(c13)CCCC4)CCCC2 [BN-6, 1,2,3,4,7,8,9,10-Octahydrobenzo[4,5]thieno[2,3-b]quinolin-11-amine]",15,75,10,10.5
"CC1CCc2c(nc3sc4c(c3c2N)CCCC4)C1 (stereo not drawn) [BN-7, 8-Methyl-1,2,3,4,7,8,9,10-octahydrobenzo[4,5]thieno[2,3-b]quinolin-11-amine]",20,70,10,7
"Nc1c2c(nc3sc4c(c13)CCCC4)CCCCC2 [BN-8, 2,3,4,7,8,9,10,11-Octahydro-1H-benzo[4,5]thieno[2,3-b]cyclohepta [e]pyridin-12-amine]",20,70,10,14
"CC1CCc2c(nc3sc4c(c3c2N)CCC4)C1 (stereo not drawn) [BN-15, 7-Methyl-2,3,6,7,8,9-hexahydro-1H-cyclopenta[4,5]thieno[2,3-b]quinolin-10-amine]",10,63.5,16.5,13

# Tested on: Wistar rats
# Assay: Carrageenan induced paw edema model
# Assay type: in vivo, rat
# Details: Rattus norvegicus, po, 3 h, read-out: % Increase in Paw Volume
# Description: Male Albino Wistar rats of 150-180 grams were used for the experiments.
# Anti-inflammatory activity of test compounds was evaluated in Wistar rats employing the method of Winter et al (1963) and Diwan et al (1989). Male Wistar rats were used for the study. […] The different test compounds were administered to the animals in the test group at the dose of 100 mg/kg, by oral route. Animals in the standard group received Indomethacin at the dose of 10 mg/kg, by oral route. All test and standard compounds were administered as 1% gum acacia suspension. Rats in the control group received the vehicle solution without drugs. One hour after test drugs administration, rats in all the groups were challenged with 0.1 ml of 1% Carrageenan in the sub plantar region of right hind paw. A zero hour paw volume was measured for all the rats using digital plethysmometer (Ugo Basile, Italy) before the administration of carrageenan for all groups. Paw volumes were again measured 3 hrs after the challenge of Carrageenan. The percent inhibition of paw volume for each rat in treated groups was calculated by comparing with mean paw volume of control group and expressed as mean (±SE) percent inhibition of paw volume for each test. In a preliminary study the compounds that have shown good activity were evaluated for dose response study by using above procedure.
row,Compound,change in vivo at 100 mg/kg [%]
1,"Nc1c2c(nc3sc4c(c13)CCCC4)CCCCC2 [BN-8, 2,3,4,7,8,9,10,11-Octahydro-1H-benzo[4,5]thieno[2,3-b]cyclohepta [e]pyridin-12-amine]",109 ± 4.87

# Same assay, conditions: Rattus norvegicus, po, 3 h, read-out: % Inhibition (paw volume)
row,Compound,inhibition in vivo at 100 mg/kg [%]
1,"Nc1c2c(nc3sc4c(c13)CCCC4)CCCCC2 [BN-8, 2,3,4,7,8,9,10,11-Octahydro-1H-benzo[4,5]thieno[2,3-b]cyclohepta [e]pyridin-12-amine]",1.2 ± 0.87

# Same assay, conditions: Rattus norvegicus; test compounds 100 mg/kg oral, Indomethacin 10 mg/kg oral; 3 hrs after Carrageenan; read-out: % Increase in Paw Volume
row,Compound,change in vivo at 100 mg/kg [%]
1,"Nc1c2c(nc3sc4c(c13)CCCC4)CCCC2 [BN-6, 1,2,3,4,7,8,9,10-Octahydrobenzo[4,5]thieno[2,3-b]quinolin-11-amine]",109 ± 2.73
2,"CC1CCc2c(nc3sc4c(c3c2N)CCCC4)C1 (stereo not drawn) [BN-7, 8-Methyl-1,2,3,4,7,8,9,10-octahydrobenzo[4,5]thieno[2,3-b]quinolin-11-amine]",113 ± 22.3
3,"CC1CCc2c(nc3sc4c(c3c2N)CCC4)C1 (stereo not drawn) [BN-15, 7-Methyl-2,3,6,7,8,9-hexahydro-1H-cyclopenta[4,5]thieno[2,3-b]quinolin-10-amine]",86.5 ± 17.1

# Same assay, conditions: Rattus norvegicus; test compounds 100 mg/kg oral, Indomethacin 10 mg/kg oral; 3 hrs after Carrageenan; read-out: % Inhibition (paw volume)
row,Compound,inhibition in vivo at 100 mg/kg [%]
1,"Nc1c2c(nc3sc4c(c13)CCCC4)CCCC2 [BN-6, 1,2,3,4,7,8,9,10-Octahydrobenzo[4,5]thieno[2,3-b]quinolin-11-amine]",3.14 ± 1.96
2,"CC1CCc2c(nc3sc4c(c3c2N)CCCC4)C1 (stereo not drawn) [BN-7, 8-Methyl-1,2,3,4,7,8,9,10-octahydrobenzo[4,5]thieno[2,3-b]quinolin-11-amine]",0.7 ± 0.7
3,"CC1CCc2c(nc3sc4c(c3c2N)CCC4)C1 (stereo not drawn) [BN-15, 7-Methyl-2,3,6,7,8,9-hexahydro-1H-cyclopenta[4,5]thieno[2,3-b]quinolin-10-amine]",23.5 ± 8.98
